Experimental data published in publication PMC4766439, “Discovery of novel PDE9 inhibitors capable of inhibiting Aβ aggregation as potential candidates for the treatment of Alzheimer’s disease” (Scientific Reports, 2016).
Where two headings read alike, the source gives them in different places.

Experiments:
[1] = target: T1, Aβ1-42 fibrils (Homo sapiens, UniProt P05067); experiment: ThT assay, disaggregation of Cu^2+-induced Aβ1-42 fibrils; assay type: biochemical; conditions: [Aβ1-42] = 25 μM, compound 50 μM, [Cu^2+] = 25 μM, additional 24 h
T1 construct: purchased Sigma
Procedure: For assaying the disaggregation of the copper (II)-induced Aβ1-42 fibrils, the Aβ1-42 stock solution was first diluted in HEPES buffer ([…], pH 6.6). The mixture of the peptide (10 μL, 25 μM final concentration) and copper (II) (10 μL, 25 μM final concentration) was then incubated at 37 °C for 24 h. Then, the test compound (10 μL, 50 μM final concentration) was added and incubated at 37 °C for an additional 24 h. Thereafter, 30 μL of the sample was diluted to a final volume of 200 μL with 50 mM glycine-NaOH buffer (pH 8.0) containing thioflavin-T (5 μM) in the dark. The detection method used was the same as that described above.

[2] = Oxygen Radical Absorbance Capacity (ORAC-FL) assay; conditions: Trolox as standard
Procedure: The assays were performed in 75 mM PBS (pH 7.4) and all the tested compounds were dissolved in DMSO and diluted with the PBS. Trolox was used as a standard (1–10 μM final concentration). The tested compounds at different concentrations (20 μL, final concentration: 2 μM) and fluorescein (FL, 120 μL, final concentration: 300 nM) were placed in the wells of a black 96-well plate. The mixture was incubated for 10 min at 37 °C and then, APPH solution (60 μL, final concentration: 12 mM diluted by 75 mM PBS) was added rapidly. […] A blank (FL + AAPH), with PBS replacing the compounds and Trolox was used for calibration in each assay. The compounds were tested at different concentrations (0.5–10 μM). The experiments were performed in three independent runs for each sample. The fluorescence measurements were normalized to that of the blank (without antioxidant). The area under the fluorescence decay curve (AUC) was calculated using the following equation (eq. 2):
where f0 is the fluorescence reading at 0 min and fi is the fluorescence reading at time i. The net AUC was calculated by the expression AUCsample − AUCblank. Regression equations between net AUC and Trolox concentrations were calculated. The final results were expressed in μM of Trolox equivalent/μM of pure compounds.

[3] = target: T2, Aβ1-42 (Homo sapiens, UniProt P05067); experiment: Transmission electron microscopy (TEM) assay of Aβ1-42; assay type: biochemical; conditions: [Aβ1-42] = 25 μM, compound 50 μM, [Cu^2+] = 25 μM, 37 °C, 24 h
T2 construct: purchased Sigma
Procedure: The assays were performed as reported previously. For the TEM assay of copper (II)-induced Aβ1-42 aggregation and the disaggregation of the fibrils, the samples were pretreated as described for the ThT assay. Samples (10 μL) were placed on a carbon-coated copper/rhodium grid for 2 min. Then, each grid was stained with uranyl acetate (1%, 5 μL) for 2 min. After the excess staining solution was drained off, the specimen was transferred for imaging by a transmission electron microscope (JEOL JEM-1400).

[4] = target: T2, Aβ1-42; experiment: ThT assay, inhibition of Cu^2+-induced Aβ1-42 aggregation; assay type: biochemical; conditions: [Aβ1-42] = 25 μM, compound 50 μM, [Cu^2+] = 25 μM, 37 °C, 24 h
Procedure: The Aβ1−42 sample (Sigma, US) was pretreated with hexafluoro-2-propanol (HFIP) and dissolved in ammonium hydroxide (1% v/v) to prepare a stock solution (2000 μM) that was aliquoted into small samples and stored at −80 °C.

[5] = PAMPA-BBB in vitro blood-brain barrier permeation assay; assay type: in vitro ADME; conditions: for Papp at 10 h, 100 μg/mL: PAMPA, read-out: Permeability; for prediction of penetration into the CNS: from PAMPA-BBB Pe
Procedure: The blood–brain barrier penetration capacity of the compounds was evaluated by using the parallel artificial membrane permeation assay (PAMPA). […] The porcine brain lipid (PBL) was obtained from Avanti Polar Lipids. The donor microplate (PVDF membrane, pore size of 0.45 nm) and the acceptor microplate were from Millipore. The acceptor 96-well microplate (COSTAR) was filled with 300 μL of a PBS/EtOH mixture (7:3) and the filter membrane was impregnated with 4 μL of PBL in dodecane (20 mg/mL). The compounds were dissolved in DMSO at a concentration of 5 mg/mL and diluted with the PBS/EtOH mixture (7:3) to a concentration of 100 μg /mL. Then, 200 μL of this solution was added to the donor wells and the wells were carefully placed on the acceptor plate, which was then incubated for 10 h at 25 °C in a vibrationless environment. After the incubation, the donor plate was removed and the concentration of compounds in the acceptor wells was determined with a UV plate reader (Flexstation 3). Each sample was analyzed at five wavelengths in four wells, and at least three independent runs were performed. The results are expressed as the mean ± standard deviation. In these experiments, 13 quality control standards of known BBB permeability were included to validate the analysis set.
where Vd is the volume in the donor well, Va is the volume in acceptor well, A is the filter area, t is the permeation time, [drug]acceptor is the absorbance of the compound in the acceptor well, and [drug]equilibrium is the theoretical equilibrium absorbance.

[6] = target: T3, PDE9A2 (181–506) (Homo sapiens, UniProt O76083); experiment: PDE activity assay, PDE9 catalytic domain; assay type: biochemical; conditions: means ± SD of at least three independent experiments
T3 construct: PDE9A2 (181–506)
Procedure: (§1) The enzymatic activities of the catalytic domains of PDE9 and other PDEs were measured by using cGMP or cAMP as substrates. The assay buffer contained 20–50 mM Tris–HCl (pH 7.5–8.0), 10 mM MgCl2 or 4 mM MnCl2, 1 mM DTT, and 10–20 nM ^3H-cGMP or ^3H-cAMP (20000–30000 cpm/assay, GE Healthcare). The reaction was performed at room temperature for 15 min and then terminated by the addition of 0.2 M ZnSO4. The addition of 0.25 M BaSO4 precipitated the generated ^3H-GMP, whereas the unreacted ^3H-cGMP remained in solution. The radioactivity in the supernatant was measured in 2.5 mL with an Ultim Gold liquid scintillation counter. […] The IC50 values were calculated by nonlinear regression method by using GraphPad Prism 5.0 Software.

[7] = target: T4, PDE2A3 (580–941) (Homo sapiens, UniProt O00408); experiment: PDE activity assay, PDE2A3 catalytic domain; assay type: biochemical
T4 construct: PDE2A3 (580–941)
Procedure: as §1

[8] = target: T5, PDE7A1 (130–482) (Homo sapiens, UniProt Q13946); experiment: PDE activity assay, PDE7A1 catalytic domain; assay type: biochemical
T5 construct: PDE7A1 (130–482)
Procedure: as §1

[9] = target: T6, PDE4D2 (86–413) (Homo sapiens, UniProt Q08499); experiment: PDE activity assay, PDE4D2 catalytic domain; assay type: biochemical
T6 construct: PDE4D2 (86–413)
Procedure: as §1

[10] = Lipid-water distribution coefficient, shake-flask 1-octanol/water; assay type: physicochemical; conditions: 1-octanol/water (1:1), means of at least three independent tests
[11] = target: T7, PDE3A (679–1087) (Homo sapiens, UniProt Q14432); experiment: PDE activity assay, PDE3A catalytic domain; assay type: biochemical
T7 construct: PDE3A (679–1087)
Procedure: as §1

[12] = target: T8, PDE1B2 (10–487) (Homo sapiens, UniProt Q01064); experiment: PDE activity assay, PDE1B2 catalytic domain; assay type: biochemical
T8 construct: PDE1B2 (10–487)
Procedure: as §1

[13] = target: PDE5A1 (535–860) (Homo sapiens, UniProt O76074); experiment: PDE activity assay, PDE5A1 catalytic domain; assay type: biochemical
Procedure: as §1

[14] = target: T9, PDE8A1 (480–820) (Homo sapiens, UniProt O60658); experiment: PDE activity assay, PDE8A1 catalytic domain; assay type: biochemical
T9 construct: PDE8A1 (480–820)
Procedure: as §1

[15] = target: T10, PDE10A2 (448–789) (Homo sapiens, UniProt Q9Y233); experiment: PDE activity assay, PDE10A2 catalytic domain; assay type: biochemical
T10 construct: PDE10A2 (448–789)
Procedure: as §1

[16] = PBS:EtOH (70:30), mean ± SD of three independent experiments

T2 sequence (P05067 672-713 limits assumed): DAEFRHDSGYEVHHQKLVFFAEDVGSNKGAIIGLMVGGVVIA
T3 sequence (O76083 241-566): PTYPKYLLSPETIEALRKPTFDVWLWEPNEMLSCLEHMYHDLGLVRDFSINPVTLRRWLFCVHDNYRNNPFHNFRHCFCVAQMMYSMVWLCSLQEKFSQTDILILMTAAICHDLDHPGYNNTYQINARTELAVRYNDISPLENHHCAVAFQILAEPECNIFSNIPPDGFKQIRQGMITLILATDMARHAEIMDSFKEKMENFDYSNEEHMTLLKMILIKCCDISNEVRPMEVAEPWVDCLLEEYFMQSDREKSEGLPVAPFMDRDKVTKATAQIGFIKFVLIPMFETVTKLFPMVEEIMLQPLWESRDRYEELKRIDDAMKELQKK
T7 sequence (Q14432 679-1087): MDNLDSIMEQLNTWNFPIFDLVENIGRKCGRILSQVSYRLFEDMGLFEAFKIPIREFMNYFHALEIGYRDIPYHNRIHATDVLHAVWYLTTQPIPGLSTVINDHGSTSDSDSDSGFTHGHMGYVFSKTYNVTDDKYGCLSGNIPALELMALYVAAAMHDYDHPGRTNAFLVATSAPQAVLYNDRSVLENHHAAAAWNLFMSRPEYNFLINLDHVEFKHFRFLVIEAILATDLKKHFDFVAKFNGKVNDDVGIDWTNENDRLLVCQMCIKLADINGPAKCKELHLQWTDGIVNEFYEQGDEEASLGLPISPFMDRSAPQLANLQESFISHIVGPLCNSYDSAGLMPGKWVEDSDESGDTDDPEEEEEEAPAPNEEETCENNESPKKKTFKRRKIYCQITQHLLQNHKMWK
T6 sequence (Q08499 388-715): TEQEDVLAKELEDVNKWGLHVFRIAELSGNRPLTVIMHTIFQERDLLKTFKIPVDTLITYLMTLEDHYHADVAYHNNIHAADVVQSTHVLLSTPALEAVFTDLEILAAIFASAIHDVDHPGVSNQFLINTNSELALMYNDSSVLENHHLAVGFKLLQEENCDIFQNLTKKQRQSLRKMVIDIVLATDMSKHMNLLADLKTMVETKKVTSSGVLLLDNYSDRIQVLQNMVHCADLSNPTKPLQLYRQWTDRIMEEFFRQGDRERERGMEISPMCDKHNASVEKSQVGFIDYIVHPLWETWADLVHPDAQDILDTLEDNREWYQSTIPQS
T4 sequence (O00408 580-941): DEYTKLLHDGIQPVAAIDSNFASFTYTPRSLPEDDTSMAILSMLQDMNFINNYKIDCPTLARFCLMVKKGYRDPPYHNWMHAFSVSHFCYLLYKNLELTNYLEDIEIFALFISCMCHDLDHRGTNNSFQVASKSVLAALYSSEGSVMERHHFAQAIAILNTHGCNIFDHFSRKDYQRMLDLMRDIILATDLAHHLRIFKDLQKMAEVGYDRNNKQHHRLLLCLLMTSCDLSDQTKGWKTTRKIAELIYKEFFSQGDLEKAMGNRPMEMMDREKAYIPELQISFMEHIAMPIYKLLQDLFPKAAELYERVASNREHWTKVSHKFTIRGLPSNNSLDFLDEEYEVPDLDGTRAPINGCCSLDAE
T5 sequence (Q13946 130-482): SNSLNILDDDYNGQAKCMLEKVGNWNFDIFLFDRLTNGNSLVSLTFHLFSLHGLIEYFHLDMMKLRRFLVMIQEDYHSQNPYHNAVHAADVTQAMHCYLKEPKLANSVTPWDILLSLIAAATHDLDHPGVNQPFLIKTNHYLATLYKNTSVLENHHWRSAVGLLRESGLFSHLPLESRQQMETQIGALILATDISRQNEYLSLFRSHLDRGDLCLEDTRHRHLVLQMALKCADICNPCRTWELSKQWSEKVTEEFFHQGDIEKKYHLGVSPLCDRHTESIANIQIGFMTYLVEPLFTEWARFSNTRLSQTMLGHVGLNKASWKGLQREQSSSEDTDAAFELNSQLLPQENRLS
T9 sequence (O60658 480-820): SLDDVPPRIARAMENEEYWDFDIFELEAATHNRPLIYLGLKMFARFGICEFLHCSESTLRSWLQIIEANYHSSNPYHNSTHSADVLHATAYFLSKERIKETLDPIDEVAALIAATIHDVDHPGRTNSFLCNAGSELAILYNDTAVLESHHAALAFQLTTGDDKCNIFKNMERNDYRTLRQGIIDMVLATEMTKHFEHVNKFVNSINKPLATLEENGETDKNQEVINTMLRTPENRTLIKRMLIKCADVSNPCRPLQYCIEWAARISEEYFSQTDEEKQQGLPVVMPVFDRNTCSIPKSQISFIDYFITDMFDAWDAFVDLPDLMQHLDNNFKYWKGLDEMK
T8 sequence (Q01064 10-487 isoform Q01064-2): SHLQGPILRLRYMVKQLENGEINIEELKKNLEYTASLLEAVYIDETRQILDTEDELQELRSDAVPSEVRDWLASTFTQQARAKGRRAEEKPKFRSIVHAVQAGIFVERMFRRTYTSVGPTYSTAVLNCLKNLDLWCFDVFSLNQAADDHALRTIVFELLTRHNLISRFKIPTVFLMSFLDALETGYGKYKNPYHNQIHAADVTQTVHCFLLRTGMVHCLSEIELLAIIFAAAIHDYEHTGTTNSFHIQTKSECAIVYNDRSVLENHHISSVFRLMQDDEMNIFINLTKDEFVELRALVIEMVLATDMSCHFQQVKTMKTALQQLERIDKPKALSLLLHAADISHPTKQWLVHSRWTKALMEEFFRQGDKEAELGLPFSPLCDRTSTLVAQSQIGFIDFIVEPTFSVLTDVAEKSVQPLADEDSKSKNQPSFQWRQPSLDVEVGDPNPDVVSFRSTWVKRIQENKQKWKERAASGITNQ
T1 sequence (P05067 672-713 limits assumed): as the sequence (P05067 672-713 limits assumed) above
T10 sequence (Q9Y233 714-1055): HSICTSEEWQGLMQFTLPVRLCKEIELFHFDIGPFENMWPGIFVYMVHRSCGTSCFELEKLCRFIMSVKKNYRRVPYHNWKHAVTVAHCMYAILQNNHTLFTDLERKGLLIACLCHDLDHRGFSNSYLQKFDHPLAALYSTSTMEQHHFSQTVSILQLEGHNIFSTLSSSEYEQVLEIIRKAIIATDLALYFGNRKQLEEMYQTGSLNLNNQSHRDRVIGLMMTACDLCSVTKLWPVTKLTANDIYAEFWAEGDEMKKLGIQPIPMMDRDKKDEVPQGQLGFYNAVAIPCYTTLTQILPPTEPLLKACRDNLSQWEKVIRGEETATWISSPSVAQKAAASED

For `Oc1c(I)cc(Cl)c2cccnc12` [CQ, clioquinol, reference compound], the “disaggregation of Cu^2+-induced Aβ1-42 fibrils (ThT)” value [1] was 50.9%, the “oxygen radical absorbance capacity, ORAC-FL value” [2] was 0.62 ORAC-FL units and the “Aβ fibrils by TEM, disaggregation of preformed fibrils” value [3] was “drastically reduced the amount of Aβ fibrils”. The “Aβ fibrils by TEM, inhibition of Cu^2+-induced aggregation” value [3] was “fewer Aβ fibrils were detected” and the “inhibitory ratio of Cu^2+-induced Aβ1-42 aggregation (ThT)” value (“inhibitory ratio” below) [4] was 52.5%.
`CN(C)CCCN1c2ccccc2Sc2ccc(Cl)cc21` [Chlorpromazine, reference compound] showed a Papp at 10 h, 100 μg/mL [5] of 60 ± 3 nm/s.
With `C[C@@H](/N=C/c1ccccc1O)c1nc2c(cnn2C2CCCC2)c(=O)[nH]1` [Compound 12] the ORAC [2] was 0.23 ± 0.02 μmol of Trolox equiv/μmol tested compound and the IC50 [6] was 211 ± 6 nM.
For `COc1ccc(/C=N/[C@H](C)c2nc3c(cnn3C3CCCC3)c(=O)[nH]2)c(O)c1` [Compound 13], the ORAC [2] was 0.15 ± 0.01 μmol of Trolox equiv/μmol tested compound and the IC50 [6] was 35 ± 3 nM.
With `COc1ccc(/C=N/[C@H](C)c2nc3c(cnn3C3CCOCC3)c(=O)[nH]2)c(O)c1` [Compound 14] the ORAC [2] was 0.22 ± 0.12 μmol of Trolox equiv/μmol tested compound and the IC50 [6] was 12 ± 1 nM.
In the case of `C[C@@H](NCc1ccccc1O)c1nc2c(cnn2C2CCCC2)c(=O)[nH]1` [Compound 15], the ORAC [2] is reported as 4.75 ± 0.72 μmol of Trolox equiv/μmol tested compound and the IC50 [6] is reported as 58 ± 2 nM.
In the case of `COc1ccc(CN[C@H](C)c2nc3c(cnn3C3CCOCC3)c(=O)[nH]2)c(O)c1` [Compound 17], the ORAC [2] is reported as 5.13 ± 0.22 μmol of Trolox equiv/μmol tested compound, the IC50 [6] is reported as 51 ± 2 nM and the Papp at 10 h, 100 μg/mL [5, 16] is reported as 65.4 ± 7.6 nm/s. For the same compound, the “prediction of penetration into the CNS” value [5] was “CNS+ (Compounds of high BBB permeation (CNS+) Pe > 4.7)”.
For `C[C@H](NCc1ccccc1O)c1nc2c(cnn2C2CCCC2)c(=O)[nH]1` [Compound 18], the ORAC [2] was 4.51 ± 0.43 μmol of Trolox equiv/μmol tested compound and the IC50 [6] was 114 ± 7 nM.
With `COc1ccc(O)c(CN[C@H](C)c2nc3c(cnn3C3CCCC3)c(=O)[nH]2)c1` [Compound 19] the ORAC [2] was 3.54 ± 0.25 μmol of Trolox equiv/μmol tested compound and the IC50 [6] was 33 ± 3 nM.
With `COc1cccc(CN[C@H](C)c2nc3c(cnn3C3CCCC3)c(=O)[nH]2)c1O` [Compound 20] the ORAC [2] was 3.50 ± 0.01 μmol of Trolox equiv/μmol tested compound and the IC50 [6] was 33 ± 4 nM.
With `C[C@@H](NCc1cc(Cl)ccc1O)c1nc2c(cnn2C2CCCC2)c(=O)[nH]1` [Compound 21] the ORAC [2] was 5.84 ± 0.50 μmol of Trolox equiv/μmol tested compound, the IC50 [6] was 47 ± 5 nM and the “inhibitory ratio” value [4] was 65.7%.
With `C[C@@H](NCc1cc(F)ccc1O)c1nc2c(cnn2C2CCCC2)c(=O)[nH]1` [Compound 22] the ORAC [2] was 5.52 ± 0.51 μmol of Trolox equiv/μmol tested compound, the IC50 [6] was 31 ± 1 nM and the IC50 [7] was 13000 nM. The “fold of selectivity of PDE9 over PDE2A3” value [7] was 421 fold, the IC50 [8] was over 40000 nM and the “fold of selectivity of PDE9 over PDE7A1” value [8] was over 1278 fold. For the same compound, the IC50 [9] was 11000 nM, the “fold of selectivity of PDE9 over PDE4D2” value [9] was 355 fold and the logP at 30 min [10] was 1.51. The IC50 [11] was over 10000 nM, the “fold of selectivity of PDE9 over PDE3A” value [11] was 323 fold and the IC50 [12] was 7000 nM. For the same compound, the “fold of selectivity of PDE9 over PDE1B2” value [12] was 234 fold, the IC50 [13] was 1600 nM and the “fold of selectivity of PDE9 over PDE5A1” value [13] was 50 fold. For the same compound, the Papp at 10 h, 100 μg/mL [5, 16] was 332 ± 47.6 nm/s, the “prediction of penetration into the CNS” value [5] was “CNS+ (Compounds of high BBB permeation (CNS+) Pe > 4.7)” and the IC50 [14] was over 50000 nM. The “fold of selectivity of PDE9 over PDE8A1” value [14] was over 1598 fold and the IC50 [15] was 33000 nM.
For `C[C@@H](NCc1cc([N+](=O)[O-])ccc1O)c1nc2c(cnn2C2CCCC2)c(=O)[nH]1` [Compound 23], the ORAC [2] was 1.02 ± 0.05 μmol of Trolox equiv/μmol tested compound and the IC50 [6] was 36 ± 4 nM.
In the case of `C[C@@H](NCc1cc(N(C)C)ccc1O)c1nc2c(cnn2C2CCCC2)c(=O)[nH]1` [Compound 24], the ORAC [2] is reported as 5.62 ± 0.02 μmol of Trolox equiv/μmol tested compound and the IC50 [6] is reported as 47 ± 3 nM.
In the case of `C[C@H](NCc1ccccn1)c1nc2c(cnn2C2CCCC2)c(=O)[nH]1` [Compound 25], the ORAC [2] is reported as 0 μmol of Trolox equiv/μmol tested compound and the IC50 [6] is reported as 310 ± 13 nM.
With `C[C@@H](NCc1ccccn1)c1nc2c(cnn2C2CCCC2)c(=O)[nH]1` [Compound 26] the ORAC [2] was 0 μmol of Trolox equiv/μmol tested compound and the IC50 [6] was 77 ± 3 nM.
With `Cc1cccc(CN[C@H](C)c2nc3c(cnn3C3CCCC3)c(=O)[nH]2)n1` [Compound 27] the ORAC [2] was 0 μmol of Trolox equiv/μmol tested compound and the IC50 [6] was 60 ± 2 nM.
In the case of `C[C@@H](/N=C/c1cccc(Br)n1)c1nc2c(cnn2C2CCCC2)c(=O)[nH]1` [Compound 28], the ORAC [2] is reported as 0 μmol of Trolox equiv/μmol tested compound and the IC50 [6] is reported as 1160 ± 90 nM.
With `C[C@@H](NCc1cccc(Br)n1)c1nc2c(cnn2C2CCCC2)c(=O)[nH]1` [Compound 29] the ORAC [2] was 0 μmol of Trolox equiv/μmol tested compound, the IC50 [6] was 38 ± 3 nM and the “inhibitory ratio” value [4] was 59.1%.
In the case of `COc1ccc2[nH]cc(CCNC(C)=O)c2c1` [melatonin, reference compound], the “oxygen radical absorbance capacity, ORAC-FL value” [2] is reported as 2.00 ORAC-FL units.
